{"source": "paper PMC2915626", "about": "“Isolation and Characterization of a Defensin-Like Peptide (Coprisin) from the Dung Beetle, Copris tripartitus” (International Journal of Peptides, 2009)", "key": {"E. coli": {"tested_on": "E. coli", "assay": "Broth microdilution assay (MIC)", "assay_type": "cell-based, Escherichia coli", "method": "(§1) In addition to a radial diffusion assay, antibacterial activities of the peptides were also tested by a broth microdilution assay against E. coli and S. aureus. Briefly, bacteria were grown overnight in TSB to the onset of stationary phase at 37°C with shaking at 200 rpm. The cultures were diluted in a fresh TSB to the final concentration of 2 × 10^4 CFU/mL. A stock solution of each peptide was prepared in 0.01% acetic acid at 640 μg/mL. The peptide solution was then serially diluted in 0.01% acetic acid to 2 μg/mL. After 90 μL aliquots of the bacterial suspension were dispensed into each well of a 96-well polypropylene microtiter plate, 10 μL of peptide solution was added. The antibacterial activities of peptides were assessed by measuring visible turbidity in each well of the plate after 18 hours of incubation at 37°C. MIC was expressed as intervals (a to b), where a was the highest concentration tested at which bacteria were still growing and b was the lowest concentration that caused complete growth inhibition."}, "S. aureus": {"tested_on": "S. aureus", "assay": "Broth microdilution assay (MIC)", "assay_type": "cell-based, Staphylococcus aureus", "method": "as §1"}, "[1]": {"settings": "broth microdilution in TSB, 2 × 10^4 CFU/mL, 18 hours at 37°C, visible turbidity, MIC as interval a to b (a highest conc. with growth, b lowest conc. with complete inhibition)"}}, "note": "Ends that are not written are not given here.", "data": [{"substance": "LHCIALRKK-NH2 [CopN5(22–30)]", "values": [{"measurement": "MIC (μg/mL) E. coli", "setting": "E. coli; [1]", "result": "8 to 16", "unit": "µg/mL"}, {"measurement": "MIC (μg/mL) S. aureus", "setting": "S. aureus; [1]", "result": ">64", "unit": "µg/mL"}]}, {"substance": "LHLIALRKK-NH2 [CopA1]", "values": [{"measurement": "MIC (μg/mL) E. coli", "setting": "E. coli; 18 h", "result": ">64", "unit": "µg/mL"}, {"measurement": "MIC (μg/mL) S. aureus", "setting": "S. aureus; 18 h", "result": ">64", "unit": "µg/mL"}]}, {"substance": "LHRIALRKK-NH2 [CopA2]", "values": [{"measurement": "MIC (μg/mL) E. coli", "setting": "E. coli; 18 h", "result": ">64", "unit": "µg/mL"}, {"measurement": "MIC (μg/mL) S. aureus", "setting": "S. aureus; 18 h", "result": ">64", "unit": "µg/mL"}]}, {"substance": "LLCIALRKK-NH2 [CopA3]", "values": [{"measurement": "MIC (μg/mL) E. coli", "setting": "E. coli; 18 h", "result": "4 to 8", "unit": "µg/mL"}, {"measurement": "antibacterial activity against Escherichia coli (in words)", "setting": "E. coli; statement of the abstract", "result": "potent antibacterial activities"}, {"measurement": "MIC (μg/mL) S. aureus", "setting": "S. aureus; 18 h", "result": "4 to 8", "unit": "µg/mL"}, {"measurement": "antibacterial activity against Staphylococcus aureus (in words)", "setting": "S. aureus; statement of the abstract", "result": "potent antibacterial activities"}]}, {"substance": "LRCIALRKK-NH2 [CopA4]", "values": [{"measurement": "MIC (μg/mL) E. coli", "setting": "E. coli; 18 h", "result": "16 to 32", "unit": "µg/mL"}, {"measurement": "MIC (μg/mL) S. aureus", "setting": "S. aureus; 18 h", "result": ">64", "unit": "µg/mL"}]}]}
